Assay results from patent publication US9447134B2 (priority 2012, dated 2016).

Columns and labels:
[1] = biological target: T1, CpIMPDH (Cryptosporidium parvum, UniProt Q8T6T2)
T1 sequence (Q8T6T2 1-400): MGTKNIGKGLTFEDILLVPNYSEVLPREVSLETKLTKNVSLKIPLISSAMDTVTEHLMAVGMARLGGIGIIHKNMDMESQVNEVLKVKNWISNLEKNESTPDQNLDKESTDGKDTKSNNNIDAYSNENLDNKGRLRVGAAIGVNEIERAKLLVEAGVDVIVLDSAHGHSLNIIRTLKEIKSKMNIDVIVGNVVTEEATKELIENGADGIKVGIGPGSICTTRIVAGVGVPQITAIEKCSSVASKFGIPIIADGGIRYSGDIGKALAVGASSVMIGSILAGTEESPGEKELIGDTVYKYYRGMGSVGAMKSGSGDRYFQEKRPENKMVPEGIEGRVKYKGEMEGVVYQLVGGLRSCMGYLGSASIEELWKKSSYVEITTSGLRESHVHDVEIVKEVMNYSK

[2] = Mouse liver microsomal stability
[3] = biological target: F. tularensis IMPDH (Francisella tularensis, UniProt Q5NFC2); test: biochemical
Sequence of F. tularensis IMPDH (Q5NFC2 1-486): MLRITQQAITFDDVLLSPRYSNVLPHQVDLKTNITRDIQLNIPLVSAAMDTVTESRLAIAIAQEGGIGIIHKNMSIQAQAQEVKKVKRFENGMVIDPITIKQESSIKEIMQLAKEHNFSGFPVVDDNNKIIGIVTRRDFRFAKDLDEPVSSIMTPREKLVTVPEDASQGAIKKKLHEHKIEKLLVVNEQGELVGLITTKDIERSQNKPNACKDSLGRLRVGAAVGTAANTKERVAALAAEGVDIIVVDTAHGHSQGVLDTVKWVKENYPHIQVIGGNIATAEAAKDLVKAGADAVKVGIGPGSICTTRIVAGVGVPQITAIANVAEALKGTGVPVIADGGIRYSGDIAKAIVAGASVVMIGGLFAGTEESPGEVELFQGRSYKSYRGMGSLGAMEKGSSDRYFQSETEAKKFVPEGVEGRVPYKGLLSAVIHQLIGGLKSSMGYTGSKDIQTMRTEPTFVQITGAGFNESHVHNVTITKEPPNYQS

[4] = biological target: B. anthracis IMPDH (Bacillus anthracis, UniProt A0A6L8P2U9); test: biochemical
Sequence of B. anthracis IMPDH (A0A6L8P2U9 1-487): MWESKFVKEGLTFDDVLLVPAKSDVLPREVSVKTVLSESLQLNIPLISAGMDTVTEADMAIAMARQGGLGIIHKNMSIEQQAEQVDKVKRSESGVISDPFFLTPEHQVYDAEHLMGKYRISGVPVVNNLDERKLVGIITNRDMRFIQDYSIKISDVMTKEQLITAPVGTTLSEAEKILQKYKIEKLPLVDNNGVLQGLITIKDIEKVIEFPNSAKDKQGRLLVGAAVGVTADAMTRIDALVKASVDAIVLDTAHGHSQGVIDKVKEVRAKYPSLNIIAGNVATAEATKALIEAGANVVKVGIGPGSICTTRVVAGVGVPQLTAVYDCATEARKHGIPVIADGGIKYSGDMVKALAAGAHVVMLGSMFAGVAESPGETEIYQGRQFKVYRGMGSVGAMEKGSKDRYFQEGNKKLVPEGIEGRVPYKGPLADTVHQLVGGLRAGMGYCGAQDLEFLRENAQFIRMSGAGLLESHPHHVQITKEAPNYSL

[5] = biological target: T1, CpIMPDH; test: biochemical
[6] = biological target: T1, CpIMPDH; remark: listed apart in the source
[7] = test system: C. parvum
[8] = mouse, in vivo; cited from earlier work
[9] = test system: Caco-2 cells; conditions: cited from earlier work
[10] = test system: Cryptosporidium; conditions: mouse models; cited from earlier work

With `Cn1nc(CC(=O)Nc2ccc(Cl)c(C(F)(F)F)c2)c2ccccc2c1=O` the “inhibition mechanism with respect to NAD+” value [1] was “pure noncompetitive inhibitor”, the Ki ([1]; read-out: Kis, with respect to NAD+) was 3.4 ± 0.2 nM and the “half-life in mouse liver microsomes” value ([2]; presence or absence of NADPH not given) was 79 min.

`C=C(C)c1cccc(C(C)(C)NC(=O)Nc2ccccc2)c1` [Compound 5a, 1-Phenyl-3-(2-(3-(prop-1-en-2-yl)phenyl)propan-2-yl)urea] gave a melting point of 188 to 190 °C.

In the case of `C=C(C)c1cccc(C(C)(C)NC(=O)Nc2ccc(Cl)c(Cl)c2)c1` [Compound 5h, 1-(3,4-Dichlorophenyl)-3-(2-(3-(prop-1-en-2-yl)phenyl)propan-2-yl)urea], the melting point is reported as 198 to 200 °C.

`C=C(C)c1cccc(C(C)(C)NC(=O)Nc2ccc3ccccc3c2)c1` [Compound 5o, 1-(Naphthalen-2-yl)-3-(2-(3-(prop-1-en-2-yl)phenyl)propan-2-yl)urea] showed a melting point of 201 to 203 °C.

With `C=C(C)c1cccc(C(C)(C)NC(=O)Nc2ccc3ccccc3n2)c1` [Compound 5t, 1-(2-(3-(prop-1-en-2-yl)phenyl)propan-2-yl)-3-(quinolin-2-yl)urea] the melting point was 126 to 128 °C.

`C/C(=N\O)c1cccc(C(C)(C)NC(=O)Nc2ccc(Cl)c(C(F)(F)F)c2)c1` [Compound 7a, (E)-1-(4-Chloro-3-(trifluoromethyl)phenyl)-3-(2-(3-(1-(hydroxyimino)ethyl)phenyl)propan-2-yl)urea] showed a melting point of 194 to 196 °C.

Work on `C/C(=N\O)c1cccc(C(C)(C)NC(=O)Nc2ccc3cccnc3c2)c1` [Compound 7e, (E)-1-(2-(3-(1-(Hydroxyimino)ethyl)phenyl)propan-2-yl)-3-(quinolin-7-yl)urea] yielded a melting point of 164 to 166 °C.

With `CC1(c2cccc(CNC(=O)Nc3ccc(Cl)cc3)c2)OCCO1` [Compound 22, 1-(4-Chlorophenyl)-3-(3-(2-methyl-1,3-dioxolan-2-yl)benzyl)urea] the “half-life in mouse liver microsomes” value ([2]; 37° C., absence of NADPH) was “quite stable” and the “half-life in mouse liver microsomes” value ([2]; 37° C., presence of NADPH) was 25 min.

`Cn1nc(CC(=O)Nc2ccc(Br)c(C(F)(F)F)c2)c2ccccc2c1=O` [Compound D45] gave an IC50 [3] of 270 nM.

In the case of `Cn1nc(CC(=O)Nc2ccc(Cl)c(F)c2)c2ccccc2c1=O` [Compound D52], the IC50 [4] is reported as 900 nM.

Compound `Cc1cc2cc(NC(=O)Cc3nn(C)c(=O)c4ccccc34)ccc2o1` [Compound D62, N-(2-methylbenzofuran-5-yl)-2-(3-methyl-4-oxo-3,4-dihydrophthalazin-1-yl)-acetamide] has an IC50 [5] of 70 nM.

For `Cn1nc(CC(=O)Nc2ccc3ocnc3c2)c2ccccc2c1=O` [Compound D64, N-(benzo[d]oxazol-5-yl)-2-(3-methyl-4-oxo-3,4-dihydrophthalazin-1-yl)acetamide], the “CpIMPDH inhibitory activity (SAR, in words)” value (“CpIMPDH inhibitory activity” below) [6] was “inactive”.

In the case of `Cn1nc(CC(=O)Nc2ccc3[nH]c4ccccc4c3c2)c2ccccc2c1=O` [Compound D70, N-(9H-carbazol-3-yl)-2-(3-methyl-4-oxo-3,4-dihydrophthalazin-1-yl)acetam-de], the “CpIMPDH inhibitory activity” value [6] is reported as “not active”.

In the case of `CCn1c2ccccc2c2cc(NC(=O)Cc3nn(C)c(=O)c4ccccc34)ccc21` [Compound D71, N-(9-ethyl-9H-carbazol-3-yl)-2-(3-methyl-oxo-3,4-dihydrophthalazin-1-yl) acetamide], the “CpIMPDH inhibitory activity” value [6] is reported as “not active”.

For `Cn1nc(CC(=O)Nc2ccc3c(c2)oc2ccccc23)c2ccccc2c1=O` [Compound D72, N-(dibenzo[b,d]furan-3-yl)-2-(3-methyl-4-oxo-3,4-dihydrophthalazin-1-yl)acetamide], the “CpIMPDH inhibitory activity” value [6] was “not active”.

For `CC(=O)c1cccc(C(C)(C)OC(=O)Nc2ccc(Cl)cc2)c1` [Compound P112], the IC50 [3] was 390 nM and the IC50 [4] was 520 nM.

`C=C(C)c1cccc(C(C)(C)NC(=O)Nc2ccc3c(c2)OCCO3)c1` [Compound P113] showed an IC50 [3] of 41 nM and an IC50 [4] of 110 nM.

With `CC(=NOC(C)(C)C)c1cccc(C(C)(C)NC(=O)Nc2ccc(Cl)c(C(F)(F)F)c2)c1` [Compound P114] the IC50 [3] was 6900 nM and the IC50 [4] was 56 nM.

With `C/C(=N\OC(C)(C)C)c1cccc(C(C)(C)NC(=O)Nc2ccc(Cl)c([N+](=O)[O-])c2)c1` [Compound P127] the IC50 [3] was 1800 nM and the IC50 [4] was 94 nM.

`C=C(C)c1cccc(C(C)(C)NC(=O)Nc2ccc(Cl)c(C(=O)O)c2)c1` [Compound P138] gave an IC50 [3] of 120 nM and an IC50 [4] of 67 nM.

`CC(NC(=O)c1ccc2oc(-c3ccncc3)nc2c1)c1ccccc1` (stereo not drawn) [Compound Q63] showed an IC50 [3] of 200000 nM and an IC50 [4] of 200000 nM.

For `C[C@H](Oc1cccc(Cl)c1Cl)C(=O)Nc1ccc2nc(-c3cncs3)oc2c1` [Compound Q64, (S)-2-(2,3-dichlorophenoxy)-N-(2-(thiazol-5-yl)benzo[d]oxazol-6-yl) propanamide], the IC50 [3] was 93.7 nM and the IC50 [4] was 203 nM.

For `C[C@H](Nc1cccc(Cl)c1Cl)C(=O)Nc1ccc2oc(-c3ccncc3)nc2c1` [Compound Q67, (S)-2-(2,3-dichlorophenylamino)-N-(2-(pyridine-4-yl)benzo[d]oxazol-5-yl)propanamide], the IC50 [3] was 27.1 nM and the IC50 [4] was 26.8 nM.

`C[C@H](Sc1cccc(Cl)c1Cl)C(=O)Nc1ccc2oc(-c3ccncc3)nc2c1` [Compound Q75] gave an IC50 [3] of 192 nM and an IC50 [4] of 151 nM.

For `NC[C@@H]1O[C@H](O[C@H]2[C@@H](O)[C@H](O[C@@H]3[C@@H](O)[C@H](N)C[C@H](N)[C@H]3O[C@H]3O[C@H](CO)[C@@H](O)[C@H](O)[C@H]3N)O[C@@H]2CO)[C@H](N)[C@@H](O)[C@@H]1O` [Paromomycin, paromomycin], the “range of reduction of fecal oocysts over experiments” value ([7]; paromomycin 2000 mg/kg daily oral gavage) was 73-99%, the “average reduction of fecal oocysts” value ([7]; paromomycin 2000 mg/kg daily oral gavage, average of experiments) was 89% and the “reduction of fecal oocysts, multiple daily dose regime” value ([7]; three daily doses (P131 3×83 mg/kg), 10,000 oocysts, counted day 4 post-infection) was 88-95%. For the same compound, the “systemic distribution / oral bioavailability (literature, in words)” value [8] was “poor oral bioavailability” and the “accumulation in Caco-2 cells (in words)” value [9] was “high accumulation”.

For `O=c1[nH]c(=O)n([C@H]2C[C@H](O)[C@@H](CO)O2)cc1C(F)(F)F` [Trifluoromethylthymidine], the “in vivo anticryptosporidial efficacy (literature, in words)” value [10] is listed as “significant anticryptosporidial activity”.

In the case of `CC(=O)Oc1ccccc1C(=O)Nc1ncc([N+](=O)[O-])s1` [nitazoxanide], the “systemic distribution / oral bioavailability (literature, in words)” value [8] is listed as “systemically distributed” and the “in vivo anticryptosporidial efficacy (literature, in words)” value [10] is listed as “little to no efficacy”.

For “N-(6,7,8,9-tetrahydrodibenzo[b,d]furan-5-yl)-2-(3-methyl-4-oxo-3,4-dihydro-phthalazin-1-yl)acetamide [Compound D67]”, the “CpIMPDH inhibitory activity” value [6] was “enhanced potency”.
